Entries after “also recorded” stand apart in the source; their conditions may differ.
Assays:
Assay type in all cases: cell-based, grass carp (Ctenopharyngodon idellus)
[1] = system: grass carp pituitary cells; assay: RT-qPCR of pituitary gene mRNA expression after peptide treatment of grass carp pituitary cells
Description: To further confirm the pituitary actions of HKs in grass carp, trypsin digestion method was used to prepare for grass carp primary cultured pituitary cells. […] After drug treatment, total RNA was extracted from adherent cells by Trizol, and then subjected to reverse transcription using HifairTM III 1st Strand cDNA Synthesis Kit (Yeasen, Shanghai, China). In the present study, β-actin was used as the internal reference gene, and then, the transcript levels of PRL, SLα, CART2, UTS1, and NMB1 were detected by using a ABI 7500 real-time PCR system (see Supplementary Table S2 for primer sequences and PCR condition). In addition, the plasmid DNA containing the gene coding sequence was serially diluted as a standard for data calibration.
In this study, RT-qPCR was used to detect mRNA expression for TAC4, NKRs, PRL, SLα, CART2, UTS1, SN2, and NMB1. In the ABI7500 software, the dynamic mRNA concentration detection range of the double standard curve is 10^5, and the correlation coefficient is >0.95. […] In the transfection experiment, the detected firefly luciferase activity was routinely normalized with the GFP activity expressed in the same well, expressed as the luciferin activity ratio Luc ratio. The data from four parallel experiments was presented as mean ± SEM in the figure. All the data were analyzed by ANOVA, and then subjected to Dunnett’s test in GraphPad Prism 7.0. The significant differences between groups were indicated by p < 0.05.
Figure 5 TAC4 gene products (HK1 and HK2) induced PRL (A) and SLα (B) mRNA expression in grass carp pituitary cells. Time course of grass carp HK1 (1 μM) and HK2 (1 μM) on PRL (A) and SLα (B) mRNA expression in grass carp pituitary cells. Dose-dependence of 24-h treatment with increasing levels of HK1 and HK2 (0.1–1000 nM) on PRL (A) and SLα (B) mRNA expression in grass carp pituitary cells. After drug treatment, the total RNA of the cells was extracted by the Trizol method, and the expression of various genes was detected by RT-PCR. Data presented were expressed as mean ± SEM, and the differences between groups were significant at p-value < 0.05 by labeling diverse letters.
Figure 6 TAC4 gene products (HK1 and HK2) induced CART2, NMB1, and UTS1 mRNA expression in grass carp pituitary cells. Time course of grass carp HK1 (1 μM) and HK2 (1 μM) on CART2 (A), NMB1 (B), and UTS1 (C) mRNA expression in grass carp pituitary cells. Dose-dependence of 24-h treatment with increasing levels of HK1 or HK2 (0.1–1000 nM) on CART2 (A), NMB1 (B), and UTS1 (C) mRNA expression in grass carp pituitary cells. After drug treatment, the total RNA of the cells was extracted by the Trizol method, and the expression of various genes were detected by RT-PCR. Data presented were expressed as mean ± SEM, and the differences between groups were significant at p-value < 0.05 by labeling diverse letters.
(§1) Figure 9 Phe to Val mutation in FXGLM motif in PRL, SLα, and UTS1 regulation by HK2 in grass carp pituitary cells. (A) Effects of HK1-V7F on PRL, SLα, and UTS1 mRNA expression in grass carp pituitary cells. In this experiment, grass carp pituitary cells were incubated for 24 h with increasing levels of HK1-V7F (0.1–1000 nM). (B) Suppressed effects of HK1 on HK2-induced PRL, SLα, and UTS1 mRNA expression in grass carp pituitary cells. Pituitary cells were challenged for 24 h with grass carp HK2 (0.1 µM) in the presence or absence of HK1 (1 µM) and HK1 (10 µM). In these experiment, Trizol method was used to extract total cell RNA, and RT-PCR was used to detect PRL, SLα, and UTS1 mRNA expression. Data presented are expressed as mean ± SEM, and the differences between groups were significant at p-value < 0.05 by labeling diverse letters.

[2] = system: grass carp pituitary cells; assay: Antagonist effect of HK1 on HK2-induced mRNA expression in grass carp pituitary cells; details: HK2 0.1 µM + HK1 1 µM and 10 µM, 24 h
Protocol: as §1
Furthermore, to verify whether HK1 could function as an endogenous antagonist of NKRs, we examined the antagonist effect of HK1 on HK2-induced pituitary hormone genes expression.

[3] = system: NK2R; assay: Functional activation of grass carp NK2R, NFAT-Luc reporter in HEK293T cells; details: among the six NKR isoforms
Protocol: To clarify the receptor selectivity of TAC4 gene products, a transfection experiment was conducted in HEK293T cells, and the fluorescent signal was detected by the firefly luciferase reporter gene detection kit. Firstly, the cDNA sequences of neurokinin receptor 1 isoforms a (NK1Ra), neurokinin receptor 1 isoforms b (NK1Rb), NK2R, neurokinin receptor 3 isoforms a1 (NK3Ra1), neurokinin receptor 3 isoforms a2 (NK3Ra2), and neurokinin receptor 3 isoforms b (NK3Rb) were isolated from grass carp pituitary, and the coding region of the six receptors were then subcloned into the eukaryotic expression vector pcDNA3.1. Secondly, the HEK293T cells were co-transfected with the plasmids of NFAT-Luc (Nuclear factor of activated T cells-luciferase), green fluorescent protein (GFP), and each pcDNA3.1-NKRs by using Lipofectamine 3000 (Thermo Fisher). The transfected HEK293T cells were incubated with various concentration HK-1 (1–10,000 nM), HK-2 (1–10,000 nM), or HK1-V7F (1–10,000 nM) for 24 h, respectively. Finally, the transfected cells were collected to detect the luciferase value according to the instructions of the firefly luciferase reporter gene detection kit. […]
Figure 2 Receptor selectivity of HK1, HK2, and HK1-V7F. […] Each point is determined quadruplicate and is given as a mean ± SEM. […]

[4] = system: six NKR isoforms; assay: Functional activation of the six grass carp NKR isoforms, NFAT-Luc reporter in HEK293T cells; details: 24 h
Protocol: To clarify the receptor selectivity of TAC4 gene products, a transfection experiment was conducted in HEK293T cells, and the fluorescent signal was detected by the firefly luciferase reporter gene detection kit. Firstly, the cDNA sequences of neurokinin receptor 1 isoforms a (NK1Ra), neurokinin receptor 1 isoforms b (NK1Rb), NK2R, neurokinin receptor 3 isoforms a1 (NK3Ra1), neurokinin receptor 3 isoforms a2 (NK3Ra2), and neurokinin receptor 3 isoforms b (NK3Rb) were isolated from grass carp pituitary, and the coding region of the six receptors were then subcloned into the eukaryotic expression vector pcDNA3.1. Secondly, the HEK293T cells were co-transfected with the plasmids of NFAT-Luc (Nuclear factor of activated T cells-luciferase), green fluorescent protein (GFP), and each pcDNA3.1-NKRs by using Lipofectamine 3000 (Thermo Fisher). The transfected HEK293T cells were incubated with various concentration HK-1 (1–10,000 nM), HK-2 (1–10,000 nM), or HK1-V7F (1–10,000 nM) for 24 h, respectively. Finally, the transfected cells were collected to detect the luciferase value according to the instructions of the firefly luciferase reporter gene detection kit.
To clarify the receptor selectivity of HK1 and HK2 for the six NKRs, HEK-293T cell lines were established to stably express NK1Ra, NK1Rb, NK2R, NK3Rb, NK3Ra1, or NK3Ra2 were established, respectively. The cells were then used for transfection study with NFAT-Luc vectors, which was allowed for functional evaluation of the activation status of Ca^2+-dependent pathway.
Figure 2 Receptor selectivity of HK1, HK2, and HK1-V7F. The nuclear factor of activated T-cells (NFAT)-Luc reporter together with NK1Ra, NK1Rb, NK2R, NK3Rb, NK3Ra1, or NK3Ra2, were transiently transfected into HEK-293 cells, respectively. The cells were incubated with increasing levels of grass carp HK1, HK2, or HK1-V7F (0.1–1000 nM), respectively. The luciferase activities were normalized against renilla expression in the same sample to adjust for potential variations in transfection efficiency. Each point is determined quadruplicate and is given as a mean ± SEM. The groups denoted by different letters represent significant differences at p-value < 0.05 (ANOVA followed Dunnett’s test).

[5] = 1 µM, 3 h, 6 h, 24 h, 48 h, RT-qPCR, β-actin
[6] = 0.1–1000 nM, 24 h, RT-qPCR, β-actin
[7] = Figure 9B, 24 h static incubation, HK2 0.1 µM

TPGLQQVFGLM-NH2 [HK1, grass carp TAC4 mature peptide, …-NH2]
CART2 mRNA expression, time course [1, 5]: no effect | NMB1 mRNA expression, time course [1, 5]: no effect | PRL mRNA expression, time course [1, 5]: no effect | SLα mRNA expression, time course [1, 5]: no effect | UTS1 mRNA expression, time course [1, 5]: no effect | CART2 mRNA expression, dose-dependence [1, 6]: ineffective | NMB1 mRNA expression, dose-dependence [1, 6]: ineffective | PRL mRNA expression, dose-dependence [1, 6]: ineffective | SLα mRNA expression, dose-dependence [1, 6]: ineffective | UTS1 mRNA expression, dose-dependence [1, 6]: ineffective | PRL mRNA stimulation compared to HK2 [1, 7]: much weaker | SLα mRNA stimulation compared to HK2 [1, 7]: much weaker | UTS1 mRNA stimulation compared to HK2 [1, 7]: much weaker | pituitary genes' expression (summary) ([1]; grass carp pituitary cells, PRL, SLα, UTS1, NMB1, CART2): notably weaker; also recorded: ineffective for the six pituitary genes’ expression | suppression of HK2-induced PRL mRNA expression [2]: could not suppress; also recorded: could not block | suppression of HK2-induced SLα mRNA expression [2]: could not suppress; also recorded: could not block | suppression of HK2-induced UTS1 mRNA expression [2]: could not suppress; also recorded: could not block | NK2R activation (in words) [3]: very weak activation | ED50, NFAT-Luc luciferase activity, NKR isoforms ([4]; HEK-293T expressing each NKR): > 10 µM | activation of the six NKR isoforms (in words) ([4]; NFAT-Luc luciferase, HEK293T, NK1Ra, NK1Rb, NK2R, NK3Ra1, NK3Ra2, NK3Rb): very weak activation; also recorded: relatively low efficient stimulant; also recorded: could barely activate any NKR isoforms
